Test results from publication PMC12371865 (2025).

Columns and labels:
[1] = tested on: d(G5C5)2 (DNA, duplex) GGGGGCCCCC; experiment: luminescence titration at 630 nm, Bard fit; conditions: K+ (50 mM potassium phosphate), pH 7, per base
[2] = tested on: polyG (polyguanylic acid) (RNA, polymer) G; experiment: luminescence quenching and UV-vis hypochromism titration; conditions: qualitative; enantiomer not stated
[3] = tested on: hTel (hybrid-1 quadruplex, K+ stabilized) (DNA, G4) TTGGGTTAGGGTTAGGGTTAGGGA; experiment: luminescence titration at 630 nm, Bard fit; conditions: K+ (50 mM potassium phosphate), pH 7, per base

N#Cc1cccc2nc3c4cccnc4c4ncccc4c3nc12.[Ru+2].c1cnc2c(ccc3nccnc32)n1.c1cnc2c(ccc3nccnc32)n1
K b ([1]; binding-site size 2.1(±0.1)): 7.8(±0.8) × 10^5 M^-1
K b ([1]; binding-site size 2.2(±0.1)): 1.3(±0.2) × 10^6 M^-1
binding [2]: yes
K b ([3]; binding-site size 1.4(±0.1)): 5.7(±0.2) × 10^5 M^-1
K b ([3]; binding-site size 2.7(±0.1)): 2.7(±0.2) × 10^5 M^-1
